The source of these data is ChEMBL document CHEMBL5537164, “Discovery of Potent, Orally Bioavailable, Tricyclic NLRP3 Inhibitors” (J Med Chem, 2024).

In brackets after ≈: the same amount, converted by molar mass. A value given as a limit tells only on which side of the number the result lay.

The nature of data set [1]: Drug concentration in blood of C57BL/6 mouse model of acute peritonitis at 50 mg/kg, po preadministered with compound for 1 hrs followed by LPS stimulation for 2 hrs and measured 15 mins after ATP addition by HPLC-MS/MS analysis. It is filed as ADME, organism-based. The following applies: whole blood, read-out: Ct.
A short description of data set [2]: Clearance in C57BL/6 mouse assessed as hepatic blood flow at 3 mg/kg, po or 1 mg/kg, iv measured after 24 hrs by LC-MS/MS analysis. The data set is classed as ADME, organism-based, Liver. The following applies: in vivo.
A short description of data set [3]: Dose normalized AUC in C57BL/6 mouse at 3 mg/kg, po measured after 24 hrs by LC-MS/MS analysis. The data set is classed as ADME, organism-based. Conditions: in vivo.
Data set [4] can be described thus: Thermodynamic solubility of compound at pH 6.8. The data set is classed as physicochemical. The following applies: buffer, read-out: Therm_solubility.
For the next data set, the target named is Cytochrome P450 2C9 (Homo sapiens, UniProt P11712). Nature of the data set: Inhibition of CYP2C9 (unknown origin). It is filed as ADME.
The target in data set [5] is Voltage-gated inwardly rectifying potassium channel KCNH2 (Homo sapiens, UniProt Q12809). The data set is described as follows: Displacement of [3H]-dofetilide from human ERG. The data set is classed as toxicity. On the technique in general: Displacement assays read how much labelled ligand stays bound in the presence of the test substance.
A short description of data set [6]: In vivo inhibition of NLRP3 in LPS/ATP-induced C57BL/6 mouse model of acute peritonitis assessed as reduction in IL-1beta level at 30 mg/kg, po preadministered with compound for 1 hrs followed by LPS stimulation for 2 hrs and measured 15 mins after ATP addition by ELISA relative to control. It is filed as functional. The following applies: time 3.25 hrs. (An ELISA detects its analyte on a solid surface through an enzyme-linked reagent.)

A short description of data set [7]: In vivo inhibition of NLRP3 in LPS/ATP-induced C57BL/6 mouse model of acute peritonitis assessed as reduction in IL-1beta level at 3 mg/kg, po preadministered with compound for 1 hrs followed by LPS stimulation for 2 hrs and measured 15 mins after ATP addition by ELISA relative to control. It is filed as functional. The following applies: time 3.25 hrs.
A short description of data set [8]: Clearance in Beagle dog assessed as hepatic blood flow at 1 mg/kg, po or 0.1 mg/kg, iv measured after 24 hrs by LC-MS/MS analysis. The following applies: in vivo. It is filed as ADME, organism-based, Canis lupus familiaris, Liver.

As usually defined, the IC50 is the midpoint of a concentration-inhibition curve. Low readings indicate inhibition by little substance, high ones a need for much substance. Broadly, the inhibition in vivo is how much of the control response was suppressed.

Chain of Voltage-gated inwardly rectifying potassium channel KCNH2 (Q12809 whole entry): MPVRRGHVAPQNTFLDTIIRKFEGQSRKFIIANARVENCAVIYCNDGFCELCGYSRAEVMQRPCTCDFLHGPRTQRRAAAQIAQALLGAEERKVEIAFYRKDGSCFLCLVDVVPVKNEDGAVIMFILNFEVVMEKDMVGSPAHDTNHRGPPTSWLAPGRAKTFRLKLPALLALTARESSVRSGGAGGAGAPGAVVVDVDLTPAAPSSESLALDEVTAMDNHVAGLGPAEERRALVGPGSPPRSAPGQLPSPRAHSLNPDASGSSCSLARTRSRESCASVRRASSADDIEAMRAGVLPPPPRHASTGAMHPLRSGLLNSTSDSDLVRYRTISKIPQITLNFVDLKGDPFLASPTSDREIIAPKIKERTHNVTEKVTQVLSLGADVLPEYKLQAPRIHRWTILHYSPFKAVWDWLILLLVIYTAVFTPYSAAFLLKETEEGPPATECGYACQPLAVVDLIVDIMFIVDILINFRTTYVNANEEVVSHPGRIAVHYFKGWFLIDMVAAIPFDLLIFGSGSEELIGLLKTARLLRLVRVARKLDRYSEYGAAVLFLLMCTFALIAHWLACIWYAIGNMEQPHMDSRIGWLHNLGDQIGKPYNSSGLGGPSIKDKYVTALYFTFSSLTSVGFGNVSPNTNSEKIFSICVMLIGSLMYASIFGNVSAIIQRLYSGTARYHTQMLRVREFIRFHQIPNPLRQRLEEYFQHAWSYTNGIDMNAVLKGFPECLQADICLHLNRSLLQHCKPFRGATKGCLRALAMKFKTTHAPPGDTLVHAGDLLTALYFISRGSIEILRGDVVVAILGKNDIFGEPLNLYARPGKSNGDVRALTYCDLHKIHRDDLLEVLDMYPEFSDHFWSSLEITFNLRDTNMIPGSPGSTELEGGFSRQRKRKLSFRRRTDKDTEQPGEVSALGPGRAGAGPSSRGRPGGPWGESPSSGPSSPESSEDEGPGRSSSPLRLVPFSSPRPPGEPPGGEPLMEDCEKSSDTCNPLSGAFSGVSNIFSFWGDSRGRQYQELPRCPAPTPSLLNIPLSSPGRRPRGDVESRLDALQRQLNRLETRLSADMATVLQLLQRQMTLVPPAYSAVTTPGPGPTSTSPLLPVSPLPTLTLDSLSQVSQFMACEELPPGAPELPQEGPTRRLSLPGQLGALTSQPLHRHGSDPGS
Chain of Cytochrome P450 2C9 (P11712 whole entry): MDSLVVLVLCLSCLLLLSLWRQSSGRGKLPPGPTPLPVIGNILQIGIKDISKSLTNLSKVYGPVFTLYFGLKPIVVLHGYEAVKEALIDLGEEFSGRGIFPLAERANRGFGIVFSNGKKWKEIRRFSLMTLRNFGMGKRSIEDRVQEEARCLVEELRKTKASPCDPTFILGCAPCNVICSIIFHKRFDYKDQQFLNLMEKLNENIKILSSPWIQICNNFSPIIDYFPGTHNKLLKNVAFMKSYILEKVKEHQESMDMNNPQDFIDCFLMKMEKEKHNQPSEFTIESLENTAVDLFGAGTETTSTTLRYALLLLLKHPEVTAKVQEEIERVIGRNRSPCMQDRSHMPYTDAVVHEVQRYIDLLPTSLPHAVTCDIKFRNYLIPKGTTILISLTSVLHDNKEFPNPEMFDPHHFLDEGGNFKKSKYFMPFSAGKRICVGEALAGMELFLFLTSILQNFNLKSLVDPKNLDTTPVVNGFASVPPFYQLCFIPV

With `CN1CCC[C@@H](NC(=O)Cn2nc(C(C)(C)O)n3c(cc4sc(Cl)cc43)c2=O)C1`, the concentration at 3.25 h in data set [1] was determined as 1680 nM. Further, the LBF in data set [2] and in data set [8] was 40% throughout. Also, in [3], the AUC/dose worked out at 235 nmol·h/L. Moreover, the solubility thermodynamic in data set [4] came out at 159 µg/mL (≈ 363 µM). Moreover, the values for the IC50 (on Cytochrome P450 2C9; in [5]) were above 25 µM and above 30 µM, respectively. Further, the inhibition in vivo at 30 mg/kg in data set [6] came out at 91%. For the same molecule, in data set [7], the inhibition in vivo at 3 mg/kg was found to be 34%.
